Several values for one entry are separate records, joined by “and”; a condition that tells them apart may be missing. Equal entries are not always repeated.
Columns and labels:
Format in all cases: functional, Homo sapiens
TERT-RPE1 = assay: (§1) Here: values are normalized to the negative (DMSO; defined as 0% autophagy induction) and positive (250nM Torin1; mTOR inhibitor; defined as maximal inducer of autophagy = 100%) control compounds and represented as % of autophagy induction. […] The impact of autophagy induction on cells is complex and depends on the affected target. As such, the magnitude of a phenotype may not be equally mirrored in the %-value of autophagy induction and vice versa. The dynamics of the induction may indicate the mode of activation: e.g. activation via phosphorylation or a signaling cascade may occur fast, while activation via transcription factors may take considerably longer. […] Of note, treatment concentrations may be sub-optimal for specific compounds, leading to false negative annotations.; settings: Culturing Media DMEM/F12 (1:1), 1 % Penicillin/Streptomycin, 10% Fetal bovin serum Add-On: No, Screening Media Control DMEM/F12 (1:1), Screening Media Samples DMEM/F12 (1:1)
U2OS [1] = assay: as §1; settings: Culturing Media DMEM, 1 % Penicillin/Streptomycin, 10% Fetal bovin serum Add-On: No, Screening Media Control DMEM, Screening Media Samples DMEM
U2OS [2] = assay: as §1; settings: Culturing Media DMEM, 1 % Penicillin/Streptomycin, 10% Fetal bovin serum Add-On: No, Screening Media Control DMEM, Screening Media Samples DMEM; remark: listed apart in the source
[3] = Compound Concentration 0.5 uM, Timepoint 12 hours
[4] = Compound Concentration 0.5 uM, Timepoint 24 hours
[5] = Compound Concentration 0.5 uM, Timepoint 36 hours
[6] = Compound Concentration 0.5 uM, Timepoint 60 hours
[7] = Compound Concentration 2 uM, Timepoint 12 hours
[8] = Compound Concentration 2 uM, Timepoint 24 hours
[9] = Compound Concentration 2 uM, Timepoint 36 hours
[10] = Compound Concentration 2 uM, Timepoint 60 hours
[11] = Compound Concentration 10 uM, Timepoint 12 hours
[12] = Compound Concentration 10 uM, Timepoint 24 hours
[13] = Compound Concentration 10 uM, Timepoint 36 hours
[14] = Compound Concentration 10 uM, Timepoint 60 hours

Row | Compound | autophagy induction (U2OS [1]; [3]) [%] | autophagy induction (U2OS [1]; [4]) [%] | autophagy induction (U2OS [1]; [5]) [%] | autophagy induction (U2OS [1]; [6]) [%] | autophagy induction (U2OS [1]; [7]) [%] | autophagy induction (U2OS [1]; [8]) [%] | autophagy induction (U2OS [1]; [9]) [%] | autophagy induction (U2OS [1]; [10]) [%] | autophagy induction (U2OS [1]; [11]) [%] | autophagy induction (U2OS [1]; [12]) [%] | autophagy induction (U2OS [1]; [13]) [%] | autophagy induction (U2OS [1]; [14]) [%] | autophagy induction (U2OS [2]; [3]) [%] | autophagy induction (U2OS [2]; [4]) [%] | autophagy induction (U2OS [2]; [5]) [%] | autophagy induction (U2OS [2]; [6]) [%] | autophagy induction (U2OS [2]; [7]) [%] | autophagy induction (U2OS [2]; [8]) [%] | autophagy induction (U2OS [2]; [9]) [%] | autophagy induction (U2OS [2]; [10]) [%] | other results
1 | COc1ccc(S(=O)(=O)N2c3ccc(Cl)cc3[C@](O)(c3ccccc3Cl)[C@@H]2C(=O)N2CCC[C@H]2C(N)=O)cc1OC [RELCOVAPTAN] | -0.4488 | -3.182 | -42.6034 | -2.284 | -3.799 | -4.202 | -60.4871 | -1.266 | 4.624 | 2.3507 | -58.7044 | -2.271 | -8.786 | -9.572 | -12.5258 | -16.7068 | -3.79 | -9.305 | -13.7756 | -18.6617 | autophagy induction (TERT-RPE1; Compound Concentration 0.5 uM, Timepoint 12 hours, 12 h, 0.5 µM): -0.4521% and -5.349%; autophagy induction (TERT-RPE1; Compound Concentration 0.5 uM, Timepoint 24 hours, 24 h, 0.5 µM): -0.2273% and -4.727%; autophagy induction (TERT-RPE1; Compound Concentration 0.5 uM, Timepoint 36 hours, 36 h, 0.5 µM): -2.897% and -4.661%; autophagy induction (TERT-RPE1; Compound Concentration 0.5 uM, Timepoint 60 hours, 60 h, 0.5 µM): -4.347% and -7.0603%; autophagy induction (TERT-RPE1; Compound Concentration 2 uM, Timepoint 12 hours, 12 h, 2 µM): 0.8726% and -2.524%; autophagy induction (TERT-RPE1; Compound Concentration 2 uM, Timepoint 24 hours, 24 h, 2 µM): -1.739% and -2.756%; autophagy induction (TERT-RPE1; Compound Concentration 2 uM, Timepoint 36 hours, 36 h, 2 µM): -2.675% and -2.785%; autophagy induction (TERT-RPE1; Compound Concentration 2 uM, Timepoint 60 hours, 60 h, 2 µM): -4.303% and -2.0726%; autophagy induction (TERT-RPE1; Compound Concentration 10 uM, Timepoint 12 hours, 12 h, 10 µM): 0.7279% and 5.088%; autophagy induction (TERT-RPE1; Compound Concentration 10 uM, Timepoint 24 hours, 24 h, 10 µM): 4.093% and 9.7265%; autophagy induction (TERT-RPE1; Compound Concentration 10 uM, Timepoint 36 hours, 36 h, 10 µM): 6.165% and 16.6943%; autophagy induction (TERT-RPE1; Compound Concentration 10 uM, Timepoint 60 hours, 60 h, 10 µM): 11.326% and 28.0498%; autophagy induction (U2OS [2]; [11]): -6.744%; autophagy induction (U2OS [2]; [12]): -13.3744%; autophagy induction (U2OS [2]; [13]): -5.479%; autophagy induction (U2OS [2]; [14]): -4.839%
2 | C[C@H](Cc1cc2c(c(C(N)=O)c1)N(CCCO)CC2)NCCOc1ccccc1OCC(F)(F)F [SILODOSIN] | -11.9601 | -4.037 | -2.198 | -1.72 | -7.096 | -4.088 | -2.301 | -1.816 | 0.9061 | 0.8821 | -0.4631 | -2.909 | 8.749 | -4.272 | -5.327 | -13.2389 | -4.216 | 0.5128 | -1.271 | -7.276 | autophagy induction (TERT-RPE1; [3]): -3.093%; autophagy induction (TERT-RPE1; [4]): -6.268%; autophagy induction (TERT-RPE1; [5]): -8.97%; autophagy induction (TERT-RPE1; [6]): -13.239%; autophagy induction (TERT-RPE1; [7]): -3.63%; autophagy induction (TERT-RPE1; [8]): -5.97%; autophagy induction (TERT-RPE1; [9]): -7.85%; autophagy induction (TERT-RPE1; [10]): -11.8179%; autophagy induction (TERT-RPE1; [11]): -0.1283%; autophagy induction (TERT-RPE1; [12]): -0.9694%; autophagy induction (TERT-RPE1; [13]): 1.604%; autophagy induction (TERT-RPE1; [14]): -1.313%; autophagy induction (U2OS [2]; [11]): 1.6%; autophagy induction (U2OS [2]; [12]): 6.633%; autophagy induction (U2OS [2]; [13]): 3.208%; autophagy induction (U2OS [2]; [14]): 0.1621%

Reference: ChEMBL document CHEMBL5724696, “Autophagy assay results for EUbOPEN Chemogenomics Library” (2024)
